ChEMBL document CHEMBL5352441, “Modulation of FLT3-ITD and CDK9 in acute myeloid leukaemia cells by novel proteolysis targeting chimera (PROTAC)” (2022)
Activity calls are given as the source filed them. The rule behind the calls is not given here.

What was measured:
MV4-11 [1] = assay: Antiproliferative activity against human MV4-11 cells harboring FLT3-ITD mutation assessed as cell growth inhibition incubated for 72 hrs by resazurin dye based fluorescence analysis; format: functional
MV4-11 [2] = assay: Antiproliferative activity against CRBN-deficient human MV4-11 cells assessed as cell growth inhibition incubated for 72 hrs by resazurin dye based fluorescence analysis; format: functional
RS4-11 = assay: Antiproliferative activity against human RS4-11 cells assessed as cell growth inhibition incubated for 72 hrs by resazurin dye based fluorescence analysis; format: functional
THP-1 = assay: Antiproliferative activity against human THP-1 cells assessed as cell growth inhibition incubated for 72 hrs by resazurin dye based fluorescence analysis; format: functional
CCRF-CEM = assay: Antiproliferative activity against human CEM cells assessed as cell growth inhibition incubated for 72 hrs by resazurin dye based fluorescence analysis; format: functional
K562 = assay: Antiproliferative activity against human K562 cells assessed as cell growth inhibition incubated for 72 hrs by resazurin dye based fluorescence analysis; format: functional
[3] = test system: Receptor-type tyrosine-protein kinase FLT3 (Homo sapiens), P36888 [UNDEFINED MUTATION]; assay: Inhibition of FLT3 autophosphorylation at Y589/591 residue in human MV4-11 cells harboring FLT3-ITD mutation at 0.004 to 2.5 uM incubated for 16 hrs by immunoblot analysis; format: cell-based; conditions: dose 0.004-2.5 µM
[4] = test system: Receptor-type tyrosine-protein kinase FLT3 (Homo sapiens), P36888 [UNDEFINED MUTATION]; assay: Inhibition of FLT3 in human MV4-11 cells harboring FLT3-ITD mutation assessed as reduction in STAT5 phosphorylation at Y694 residue at 0.004 to 2.5 uM incubated for 16 hrs by immunoblot analysis; format: cell-based; conditions: dose 0.004-2.5 µM
[5] = target: T1, Protein cereblon/Cyclin-dependent kinase 9 (Homo sapiens) (UniProt P50750+Q96SW2); assay: PROTAC activity at CRBN/CDK9 in human MV4-11 cells harboring FLT3-ITD mutation assessed as induction of protein degradation incubated for 16 hrs by immunoblot analysis; format: cell-based; conditions: dose 0.004-2.5 µM
[6] = target: Receptor-type tyrosine-protein kinase FLT3 (Homo sapiens) (UniProt P36888); assay: Stabilization of FLT3 in CRBN-deficient human MV4-11 at 0.004 to 2.5 uM incubated for 16 hrs by immunoblot analysis; format: cell-based; conditions: dose 0.004-2.5 µM
MV4-11 [7] = assay: Induction of apoptosis in human MV4-11 cells assessed as PARP-1 cleavage incubated for 16 hrs in presence of Ac-DEVD-AMC by fluorescence microplate reader analysis; format: functional, cell-based; conditions: dose 0.004-2.5 µM
MV4-11 [8] = assay: Induction of apoptosis in CRBN-deficient human MV4-11 cells assessed as activation of caspase 3 at 0.004 to 25 uM incubated for 16 hrs in presence of Ac-DEVD-AMC by fluorescence microplate reader analysis; format: functional, cell-based; conditions: dose 0.004-25 µM
MV4-11 [9] = assay: Induction of apoptosis in CRBN-deficient human MV4-11 cells assessed as activation of caspase 7 at 0.004 to 25 uM incubated for 16 hrs in presence of Ac-DEVD-AMC by fluorescence microplate reader analysis; format: functional, cell-based; conditions: dose 0.004-25 µM
MV4-11 [10] = assay: Induction of cell cycle arrest in human MV4-11 cells assessed as accumulation of cells at S phase at 0.004 uM incubated for 16 hrs by PI staining based flow cytometry analysis (reference value: 26.16%); format: functional
MV4-11 [11] = assay: Induction of cell cycle arrest in human MV4-11 cells assessed as accumulation of cells at G1 phase at 0.02 uM incubated for 16 hrs by PI staining based flow cytometry analysis (reference value: 62.97%); format: functional
MV4-11 [12] = assay: Induction of cell cycle arrest in human MV4-11 cells assessed as accumulation of cells at S phase at 0.02 uM incubated for 16 hrs by PI staining based flow cytometry analysis (reference value: 26.16%); format: functional
MV4-11 [13] = assay: Induction of cell cycle arrest in human MV4-11 cells assessed as accumulation of cells at G2/M phase at 0.02 uM incubated for 16 hrs by PI staining based flow cytometry analysis (reference value: 10.86%); format: functional
MV4-11 [14] = assay: Induction of cell cycle arrest in human MV4-11 cells assessed as accumulation of cells at S phase at 0.1 uM incubated for 16 hrs by PI staining based flow cytometry analysis (reference value: 26.16%); format: functional
MV4-11 [15] = assay: Induction of cell cycle arrest in human MV4-11 cells assessed as accumulation of cells at G2/M phase at 0.1 uM incubated for 16 hrs by PI staining based flow cytometry analysis (reference value: 10.86%); format: functional
MV4-11 [16] = assay: Induction of cell cycle arrest in human MV4-11 cells assessed as accumulation of cells at G2/M phase at 2.5 uM incubated for 16 hrs by PI staining based flow cytometry analysis (reference value: 10.86%); format: functional
MV4-11 [17] = assay: Induction of cell cycle arrest in CRBN-deficient human MV4-11 cells assessed as accumulation of cells at G1 phase at 0.004 uM incubated for 16 hrs by PI staining based flow cytometry analysis (reference value: 54.05%); format: functional
MV4-11 [18] = assay: Induction of cell cycle arrest in CRBN-deficient human MV4-11 cells assessed as accumulation of cells at G1 phase at 0.02 uM incubated for 16 hrs by PI staining based flow cytometry analysis (reference value: 54.05%); format: functional
MV4-11 [19] = assay: Induction of cell cycle arrest in CRBN-deficient human MV4-11 cells assessed as accumulation of cells at S phase at 0.02 uM incubated for 16 hrs by PI staining based flow cytometry analysis (reference value: 36.91%); format: functional
MV4-11 [20] = assay: Induction of cell cycle arrest in CRBN-deficient human MV4-11 cells assessed as accumulation of cells at sub-G1 phase at 0.1 uM incubated for 16 hrs by PI staining based flow cytometry analysis (reference value: 12.52%); format: functional
MV4-11 [21] = assay: Induction of cell cycle arrest in CRBN-deficient human MV4-11 cells assessed as accumulation of cells at sub-G1 phase at 0.5 uM incubated for 16 hrs by PI staining based flow cytometry analysis (reference value: 12.52%); format: functional
MV4-11 [22] = assay: Downregulation of HOXA9 gene expression in human MV4-11 cells incubated for 4 hrs by qRT-PCR analysis; format: functional, cell-based; conditions: dose 0.004-2.5 µM
MV4-11 [23] = assay: Downregulation of MCL-1 gene expression in human MV4-11 cells incubated for 4 hrs by qRT-PCR analysis; format: functional, cell-based; conditions: dose 0.004-2.5 µM
MV4-11 [24] = assay: Downregulation of FLT3 gene expression in human MV4-11 cells at 0.004 to 2.5 uM incubated for 4 hrs by qRT-PCR analysis; format: functional, cell-based; conditions: dose 0.004-2.5 µM
[25] = target: Receptor-type tyrosine-protein kinase FLT3 (Homo sapiens) (UniProt P36888); assay: Inhibition of FLT3 signalling pathway in human MV4-11 cells assessed as reduction in ERK1/2 phosphorylation at T202/Y204 residues at 0.1 to 0.5 uM preincubated for 90 mins with 4-hydroxythalidomide followed by compound addition and further incubated for 16 hrs by immunoblot analysis; format: cell-based; conditions: dose 0.1-0.5 µM
[26] = target: Receptor-type tyrosine-protein kinase FLT3 (Homo sapiens) (UniProt P36888); assay: Inhibition of FLT3 signalling pathway in human MV4-11 cells assessed as reduction in STAT5 phosphorylation at Y694 residues at 0.1 to 0.5 uM preincubated for 90 mins with 4-hydroxythalidomide followed by compound addition and further incubated for 16 hrs by immunoblot analysis; format: cell-based; conditions: dose 0.1-0.5 µM
[27] = target: T1, Protein cereblon/Cyclin-dependent kinase 9 (Homo sapiens); assay: PROTAC activity at CRBN/CDK9 in human MV4-11 cells at 0.1 to 0.5 uM preincubated for 90 mins with 4-hydroxythalidomide followed by compound addition and further incubated for 16 hrs by immunoblot analysis; format: cell-based; conditions: dose 0.1-0.5 µM

Receptor-type tyrosine-protein kinase FLT3 (Homo sapiens), sequence (P36888 whole entry): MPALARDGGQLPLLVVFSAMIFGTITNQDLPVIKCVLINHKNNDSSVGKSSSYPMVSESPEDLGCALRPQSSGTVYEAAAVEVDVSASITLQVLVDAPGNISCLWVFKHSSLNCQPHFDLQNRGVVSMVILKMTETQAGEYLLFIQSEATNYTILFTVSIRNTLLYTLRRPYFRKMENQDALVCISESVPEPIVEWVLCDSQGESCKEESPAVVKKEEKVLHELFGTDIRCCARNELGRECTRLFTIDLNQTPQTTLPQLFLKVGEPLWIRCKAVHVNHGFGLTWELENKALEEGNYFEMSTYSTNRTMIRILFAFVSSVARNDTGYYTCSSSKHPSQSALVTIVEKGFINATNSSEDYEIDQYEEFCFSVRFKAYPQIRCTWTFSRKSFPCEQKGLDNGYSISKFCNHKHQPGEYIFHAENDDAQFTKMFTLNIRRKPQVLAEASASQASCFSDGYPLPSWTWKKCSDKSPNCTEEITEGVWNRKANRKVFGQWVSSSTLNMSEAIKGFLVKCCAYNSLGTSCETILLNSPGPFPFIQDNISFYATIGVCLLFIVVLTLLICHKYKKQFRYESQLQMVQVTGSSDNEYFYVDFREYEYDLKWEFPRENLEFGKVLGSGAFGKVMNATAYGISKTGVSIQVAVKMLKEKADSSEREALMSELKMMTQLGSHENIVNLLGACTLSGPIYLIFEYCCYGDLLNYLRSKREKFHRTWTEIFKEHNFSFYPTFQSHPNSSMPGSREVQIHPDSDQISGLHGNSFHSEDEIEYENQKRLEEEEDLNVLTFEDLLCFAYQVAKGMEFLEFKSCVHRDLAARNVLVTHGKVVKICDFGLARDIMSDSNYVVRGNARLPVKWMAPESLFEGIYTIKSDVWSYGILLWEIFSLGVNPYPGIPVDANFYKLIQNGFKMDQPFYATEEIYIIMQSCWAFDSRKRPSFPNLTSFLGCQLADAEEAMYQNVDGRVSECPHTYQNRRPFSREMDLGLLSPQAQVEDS
T1 sequence (P50750 whole entry, looked up): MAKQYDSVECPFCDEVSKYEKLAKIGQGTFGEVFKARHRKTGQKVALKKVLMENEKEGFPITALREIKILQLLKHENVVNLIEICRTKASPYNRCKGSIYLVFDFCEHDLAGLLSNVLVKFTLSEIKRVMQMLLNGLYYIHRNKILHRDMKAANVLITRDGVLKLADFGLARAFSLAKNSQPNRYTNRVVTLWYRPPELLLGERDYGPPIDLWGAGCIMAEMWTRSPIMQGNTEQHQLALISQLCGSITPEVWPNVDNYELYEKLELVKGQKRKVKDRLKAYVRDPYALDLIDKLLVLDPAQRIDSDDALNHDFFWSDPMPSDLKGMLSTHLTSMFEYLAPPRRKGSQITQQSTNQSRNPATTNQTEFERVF
T1 sequence (Q96SW2 whole entry, looked up): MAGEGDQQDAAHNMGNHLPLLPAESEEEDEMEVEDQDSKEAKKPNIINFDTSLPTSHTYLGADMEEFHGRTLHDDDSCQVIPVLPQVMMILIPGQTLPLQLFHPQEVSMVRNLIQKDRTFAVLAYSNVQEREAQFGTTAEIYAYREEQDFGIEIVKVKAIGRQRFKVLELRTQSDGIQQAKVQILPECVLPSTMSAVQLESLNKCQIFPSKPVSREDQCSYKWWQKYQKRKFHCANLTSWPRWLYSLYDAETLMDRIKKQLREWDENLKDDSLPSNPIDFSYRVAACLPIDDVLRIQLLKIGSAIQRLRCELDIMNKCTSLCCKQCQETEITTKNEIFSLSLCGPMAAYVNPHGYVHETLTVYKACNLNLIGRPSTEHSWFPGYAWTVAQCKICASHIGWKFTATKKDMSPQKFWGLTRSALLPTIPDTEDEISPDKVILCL
Receptor-type tyrosine-protein kinase FLT3 (Homo sapiens), P36888 [UNDEFINED MUTATION], sequence (P36888 whole entry, looked up, change not shown): as the sequence (P36888 whole entry) above

NC1CCC(Nc2nc(Nc3ccc(N4CCN(CCOCCOCCNC(=O)CNc5cccc6c5C(=O)N(C5CCC(=O)NC5=O)C6=O)CC4)cc3)c3ncn(C4CCCC4)c3n2)CC1 (stereo unspecified)
GI50 (MV4-11 [1]): 47 nM
GI50 (MV4-11 [2]): 119 nM
GI50 (RS4-11): 1010 nM
GI50 (THP-1): 9990 nM
GI50 (CCRF-CEM): > 10000 nM
GI50 (K562): > 10000 nM
inhibition [3]: Active
inhibition [4]: Active
Activity [5]: Dose-Dependent Effect
Activity [6]: Active
Activity (MV4-11 [7]): Dose-Dependent Effect
Activity (MV4-11 [8]): inactive
Activity (MV4-11 [9]): inactive
Activity (MV4-11 [10]): 21.5%
Activity (MV4-11 [11]): 82.36%
Activity (MV4-11 [12]): 12.41%
Activity (MV4-11 [13]): 5.22%
Activity (MV4-11 [14]): 6.42%
Activity (MV4-11 [15]): 3.96%
Activity (MV4-11 [16]): 7.79%
Activity (MV4-11 [17]): 63.08%
Activity (MV4-11 [18]): 76.96%
Activity (MV4-11 [19]): 17.04%
Activity (MV4-11 [20]): 17.71%
Activity (MV4-11 [21]): 21.07%
Activity (MV4-11 [22]): Dose-Dependent Effect
Activity (MV4-11 [23]): Dose-Dependent Effect
Activity (MV4-11 [24]): inactive
inhibition [25]: Active
inhibition [26]: Active
Activity [27]: inactive
